27 molecules from US20080090845A1, “Haloalkyl-substituted pyrimidinone derivatives” (Neurogen Corporation, priority 2006, published 2008) can be followed below.

Molecules are shown by their SMILES.

T1 sequence (Q8NER1 whole entry): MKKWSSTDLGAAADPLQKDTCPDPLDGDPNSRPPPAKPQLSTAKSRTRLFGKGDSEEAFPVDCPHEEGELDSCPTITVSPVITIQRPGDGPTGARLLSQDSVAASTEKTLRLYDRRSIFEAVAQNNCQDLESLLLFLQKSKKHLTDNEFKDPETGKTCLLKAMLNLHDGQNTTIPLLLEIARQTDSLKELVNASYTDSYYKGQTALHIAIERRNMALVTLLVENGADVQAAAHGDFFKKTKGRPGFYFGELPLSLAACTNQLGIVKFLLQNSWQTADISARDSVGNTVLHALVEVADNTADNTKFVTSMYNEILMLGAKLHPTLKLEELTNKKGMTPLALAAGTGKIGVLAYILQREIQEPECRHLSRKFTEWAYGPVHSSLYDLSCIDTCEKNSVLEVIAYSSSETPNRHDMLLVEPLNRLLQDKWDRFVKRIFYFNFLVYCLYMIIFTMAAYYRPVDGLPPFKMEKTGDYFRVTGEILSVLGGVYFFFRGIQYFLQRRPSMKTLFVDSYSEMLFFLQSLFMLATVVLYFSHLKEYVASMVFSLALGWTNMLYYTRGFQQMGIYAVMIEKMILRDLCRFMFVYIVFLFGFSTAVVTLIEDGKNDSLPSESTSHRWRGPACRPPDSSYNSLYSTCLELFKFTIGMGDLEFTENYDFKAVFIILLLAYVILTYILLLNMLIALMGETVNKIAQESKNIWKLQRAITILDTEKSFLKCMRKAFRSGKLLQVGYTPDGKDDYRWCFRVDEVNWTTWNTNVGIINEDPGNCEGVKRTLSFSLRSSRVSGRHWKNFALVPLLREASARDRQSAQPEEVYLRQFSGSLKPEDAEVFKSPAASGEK

One assay concerns the target T1, human capsaicin receptor (Homo sapiens, UniProt Q8NER1).
T1 construct: pBK-CMV expression construct encoding the full length human capsaicin receptor; expressed in transfected cells
Briefly: Calcium mobilization assay, determination of antagonist activity (Example 6). The assay is classed as cell-based. Conditions: cells expressing human capsaicin receptor, capsaicin-induced fluorescence response; read-out: IC50. Here is the method:
A cDNA encoding full length human capsaicin receptor (SEQ ID NO:1, 2 or 3 of U.S. Pat. No. 6,482,611) is subcloned in the plasmid pBK-CMV (Stratagene, La Jolla, Calif.) for recombinant expression in mammalian cells.
Human embryonic kidney (HEK293) cells are transfected with the pBK-CMV expression construct encoding the full length human capsaicin receptor using standard methods. The transfected cells are selected for two weeks in media containing G418 (400 μg/ml) to obtain a pool of stably transfected cells. Independent clones are isolated from this pool by limiting dilution to obtain clonal stable cell lines for use in subsequent experiments.
Cells transfected with expression plasmids (as described in Example 4) and thereby expressing human capsaicin receptor are seeded and grown to 70-90% confluency in FALCON black-walled, clear-bottomed 96-well plates (#3904, BECTON-DICKINSON, Franklin Lakes, N.J.). The culture medium is emptied from the 96 well plates and FLUO-3 AM calcium sensitive dye (Molecular Probes, Eugene, Oreg.) is added to each well (dye solution: 1 mg FLUO-3 AM, 440 μl DMSO and 440 μl 20% pluronic acid in DMSO diluted 1:250 in Krebs-Ringer HEPES (KRH) buffer (25 mM HEPES, 5 mM KCl, 0.96 mM NaH2PO4, 1 mM MgSO4, 2 mM CaCl2, 5 mM glucose, 1 mM probenecid, pH 7.4), 50 μl diluted solution per well). Plates are covered with aluminum foil and incubated at 37° C. for 1-2 hours in an environment containing 5% CO2. After the incubation, the dye is emptied from the plates, and the cells are washed once with KRH buffer, and resuspended in KRH buffer.
To measure the ability of a test compound to agonize or antagonize a calcium mobilization response in cells expressing capsaicin receptors to capsaicin or other vanilloid agonist, the EC50 of the agonist capsaicin is first determined. An additional 20 μl of KRH buffer and 1 μl DMSO is added to each well of cells, prepared as described above. 100 μl capsaicin in KRH buffer is automatically transferred by the FLIPR instrument to each well. Capsaicin-induced calcium mobilization is monitored using either FLUOROSKAN ASCENT (Labsystems; Franklin, Mass.) or FLIPR (fluorometric imaging plate reader system; Molecular Devices, Sunnyvale, Calif.) instruments. Data obtained between 30 and 60 seconds after agonist application are used to generate an 8-point concentration response curve, with final capsaicin concentrations of 1 nM to 3 μM. KALEIDAGRAPH software (Synergy Software, Reading, Pa.) is used to fit the data to the equation: y=a*(1/(1+(b/x)^c)) to determine the 50% excitatory concentration (EC50) for the response. In this equation, y is the maximum fluorescence signal, x is the concentration of the agonist or antagonist (in this case, capsaicin), a is the Emax, b corresponds to the EC50 value and c is the Hill coefficient. Determination of Agonist Activity
Test compounds are dissolved in DMSO, diluted in 20 μl KRH buffer so that the final concentration of test compounds in the assay well is between 1 μM and 5 μM, and added to cells prepared as described above. The 96 well plates containing prepared cells and test compounds are incubated in the dark, at room temperature for 0.5 to 6 hours. It is important that the incubation not continue beyond 6 hours. Just prior to determining the fluorescence response, 100 μl capsaicin in KRH buffer at twice the EC50 concentration determined as described above is automatically added by the FLIPR instrument to each well of the 96 well plate for a final sample volume of 200 μl and a final capsaicin concentration equal to the EC50. The final concentration of test compounds in the assay wells is between 1 μM and 5 μM. […] The concentration of antagonist required to provide a 50% decrease, relative to the response observed in the presence of capsaicin and without antagonist, is the IC50 for the antagonist, and is preferably below 1 micromolar, 100 nanomolar, 10 nanomolar or 1 nanomolar.
(A change in cytosolic calcium serves as a functional read-out for many receptors and channels.)
With `CCn1cnc2c(=O)n(-c3ccc(Cl)cc3)c(CC(C)C(F)(F)F)nc21` (stereo not drawn) [Compound 8, 1-(4-chlorophenyl)-9-ethyl-2-(3,3,3-trifluoro-2-methylpropyl)-1,9-dihydro-6H-purin-6-one], the IC50 (commonly the concentration that gives 50% inhibition) was no more than 100 nM.

Consider `CC(Cc1nc2c(ncn2C)c(=O)n1-c1ccc(Cl)cc1)C(F)(F)F` (stereo not drawn) [Compound 9, 1-(4-chlorophenyl)-9-methyl-2-(3,3,3-trifluoro-2-methylpropyl)-1,9-dihydro-6H-purin-6-one], for which the IC50 was no more than 100 nM.

Regarding `CCn1cnc2c(=O)n(-c3ccc(F)cc3)c(CC(C)C(F)(F)F)nc21` (stereo not drawn) [Compound 10, 9-ethyl-1-(4-fluorophenyl)-2-(3,3,3-trifluoro-2-methylpropyl)-1,9-dihydro-6H-purin-6-one], the IC50 is no more than 100 nM.

As for `CCn1cnc2c(=O)n(-c3ccc(Cl)cc3)c(CC(C)CC(F)(F)F)nc21` (stereo not drawn) [Compound 11, 1-(4-chlorophenyl)-9-ethyl-2-(4,4,4-trifluoro-2-methylbutyl)-1,9-dihydro-6H-purin-6-one], the IC50 was no more than 100 nM.

Turning to `CC(Cc1nc2c(ncn2C)c(=O)n1-c1ccc(Cl)cc1)CC(F)(F)F` (stereo not drawn) [Compound 12, 1-(4-chlorophenyl)-9-methyl-2-(4,4,4-trifluoro-2-methylbutyl)-1,9-dihydro-6H-purin-6-one], the IC50 is no more than 100 nM.

For `CCn1cnc2c(=O)n(-c3ccc(F)cc3)c(CC(C)CC(F)(F)F)nc21` (stereo not drawn) [Compound 13, 9-ethyl-1-(4-fluorophenyl)-2-(4,4,4-trifluoro-2-methylbutyl)-1,9-dihydro-6H-purin-6-one], the IC50 was no more than 100 nM.

With `CC(Cc1nc2c(ncn2C)c(=O)n1-c1ccc(F)cc1)CC(F)(F)F` (stereo not drawn) [Compound 14, 1-(4-fluorophenyl)-9-methyl-2-(4,4,4-trifluoro-2-methylbutyl)-1,9-dihydro-6H-purin-6-one], the IC50 was no more than 100 nM.

Regarding `CC(Cc1nc2c(ncn2C2CC2)c(=O)n1-c1ccc(Cl)cc1)CC(F)(F)F` (stereo not drawn) [Compound 15, 1-(4-chlorophenyl)-9-cyclopropyl-2-(4,4,4-trifluoro-2-methylbutyl)-1,9-dihydro-6H-purin-6-one], the IC50 is no more than 100 nM.

Take `CCn1cnc2c(=O)n(-c3ccc(Cl)cc3)c(CCC(C)C(F)(F)F)nc21` (stereo not drawn) [Compound 16, 1-(4-chlorophenyl)-9-ethyl-2-(4,4,4-trifluoro-3-methylbutyl)-1,9-dihydro-6H-purin-6-one]: the concentration for half-maximal inhibition (IC50) was no more than 100 nM.

Regarding `CC(CCc1nc2c(ncn2C)c(=O)n1-c1ccc(Cl)cc1)C(F)(F)F` (stereo not drawn) [Compound 17, 1-(4-chlorophenyl)-9-methyl-2-(4,4,4-trifluoro-3-methylbutyl)-1,9-dihydro-6H-purin-6-one], the half-inhibitory concentration (IC50) is no more than 100 nM.

Regarding `CCn1cnc2c(=O)n(-c3ccc(F)cc3)c(CCC(C)C(F)(F)F)nc21` (stereo not drawn) [Compound 18, 9-ethyl-1-(4-fluorophenyl)-2-(4,4,4-trifluoro-3-methylbutyl)-1,9-dihydro-6H-purin-6-one], the IC50 is no more than 100 nM.

Consider `CC(CCc1nc2c(ncn2C)c(=O)n1-c1ccc(F)cc1)C(F)(F)F` (stereo not drawn) [Compound 19, 1-(4-fluorophenyl)-9-methyl-2-(4,4,4-trifluoro-3-methylbutyl)-1,9-dihydro-6H-purin-6-one], for which the IC50 is no more than 100 nM.

In the case of `CC(Cc1nc2c(ncn2CC(F)(F)F)c(=O)n1-c1ccc(Cl)cc1)CC(F)(F)F` (stereo not drawn) [Compound 20, 1-(4-chlorophenyl)-9-(2,2,2-trifluoroethyl)-2-(4,4,4-trifluoro-2-methylbutyl)-1,9-dihydro-6H-purin-6-one], the IC50 was no more than 100 nM.

As for `CC(Cc1nc2c(ncn2CC(F)F)c(=O)n1-c1ccc(Cl)cc1)CC(F)(F)F` (stereo not drawn) [Compound 21, 1-(4-chlorophenyl)-9-(2,2-difluoroethyl)-2-(4,4,4-trifluoro-2-methylbutyl)-1,9-dihydro-6H-purin-6-one], the IC50 is no more than 100 nM.

With `CC(Cc1nc2c(ncn2CC(F)F)c(=O)n1-c1ccc(Cl)cc1)C(F)(F)F` (stereo not drawn) [Compound 22, 1-(4-chlorophenyl)-9-(2,2-difluoroethyl)-2-(3,3,3-trifluoro-2-methylpropyl)-1,9-dihydro-6H-purin-6-one], the IC50 was no more than 100 nM.

Turning to `CC(CCc1nc2c(ncn2CC(F)F)c(=O)n1-c1ccc(Cl)cc1)C(F)(F)F` (stereo not drawn) [Compound 23, 1-(4-chlorophenyl)-9-(2,2-difluoroethyl)-2-(4,4,4-trifluoro-3-methylbutyl)-1,9-dihydro-6H-purin-6-one], the IC50 was no more than 100 nM.

Take `CC(Cc1nc2c(ncn2CC(F)(F)F)c(=O)n1-c1ccc(Cl)cc1)C(F)(F)F` (stereo not drawn) [Compound 24, 1-(4-chlorophenyl)-9-(2,2,2-trifluoroethyl)-2-(3,3,3-trifluoro-2-methylpropyl)-1,9-dihydro-6H-purin-6-one]: the IC50 is no more than 100 nM.

With `CC(CCc1nc2c(ncn2CC(F)(F)F)c(=O)n1-c1ccc(Cl)cc1)C(F)(F)F` (stereo not drawn) [Compound 25, 1-(4-chlorophenyl)-9-(2,2,2-trifluoroethyl)-2-(4,4,4-trifluoro-3-methylbutyl)-1,9-dihydro-6H-purin-6-one], the IC50 was no more than 100 nM.

`CC(Cc1nc2c(ncn2CC(F)F)c(=O)n1-c1ccc(F)cc1)CC(F)(F)F` (stereo not drawn) [Compound 26, 9-(2,2-difluoroethyl)-1-(4-fluorophenyl)-2-(4,4,4-trifluoro-2-methylbutyl)-1,9-dihydro-6H-purin-6-one]: the IC50 is no more than 100 nM.

In the case of `CC(CCc1nc2c(ncn2CC(F)F)c(=O)n1-c1ccc(F)cc1)C(F)(F)F` (stereo not drawn) [Compound 27, 9-(2,2-difluoroethyl)-1-(4-fluorophenyl)-2-(4,4,4-trifluoro-3-methylbutyl)-1,9-dihydro-6H-purin-6-one], the IC50 was no more than 100 nM.

As to `CC(CCc1nc2c(ncn2C)c(=O)n1-c1ccc(C#N)cc1)C(F)(F)F` (stereo not drawn) [Compound 28, 4-[9-methyl-6-oxo-2-(4,4,4-trifluoro-3-methylbutyl)-6,9-dihydro-1H-purin-1-yl]benzonitrile], the IC50 is no more than 100 nM.

As for `CC(Cc1nc2c(ncn2C)c(=O)n1-c1ccc(C#N)cc1)CC(F)(F)F` (stereo not drawn) [Compound 29, 4-[9-methyl-6-oxo-2-(4,4,4-trifluoro-2-methylbutyl)-6,9-dihydro-1H-purin-1-yl]benzonitrile], the IC50 was no more than 100 nM.

Consider `C[C@H](Cc1nc2c(ncn2C)c(=O)n1-c1ccc(Cl)cc1)CC(F)(F)F` [Compound 30, 1-(4-chlorophenyl)-9-methyl-2-[(2R)-4,4,4-trifluoro-2-methylbutyl]-1,9-dihydro-6H-purin-6-one], for which the concentration for half-maximal inhibition (IC50) is no more than 100 nM.

As to `CCn1cnc2c(=O)n(-c3ccc(C#N)cc3)c(CC(C)CC(F)(F)F)nc21` (stereo not drawn) [Compound 31, 4-[9-ethyl-6-oxo-2-(4,4,4-trifluoro-2-methylbutyl)-6,9-dihydro-1H-purin-1-yl]benzonitrile], the IC50 is no more than 100 nM.

For `C[C@@H](CCc1nc2c(ncn2C)c(=O)n1-c1ccc(Cl)cc1)C(F)(F)F` [Compound 32, 1-(4-chlorophenyl)-9-methyl-2-[(3S)-4,4,4-fluoro-3-methylbutyl]-1,9-dihydro-6H-purin-6-one], the IC50 was no more than 100 nM.

Still in this assay, the particulars now being: cells expressing human capsaicin receptor, capsaicin-induced fluorescence response; read-out: IC50 determined as described in Example 6.
On to `C[C@H](Cc1nc2c(ncn2C)c(=O)n1-c1ccc(Cl)cc1)C(F)(F)F` [Compound 6, (R)-1-(4-Chlorophenyl)-9-methyl-2-(3,3,3-trifluoro-2-methylpropyl)-1H-purin-6(9H)-one], for which the IC50 is no more than 100 nM.

Regarding `CCn1cnc2c(=O)n(-c3ccc(Cl)nc3)c(CC(C)C(F)(F)F)nc21` (stereo not drawn) [Compound 7, 1-(6-chloropyridin-3-yl)-9-ethyl-2-(3,3,3-trifluoro-2-methylpropyl)-1,9-dihydro-6H-purin-6-one], the IC50 is no more than 100 nM.
